Experimental data as given in patent US20070056049A1, “p53 and VEGF regulate tumor growth of NOS2 expressing cancer cells” (The Govt. of the USA as represented by the Secretary of the …, priority 1998, published 2007).
“Also recorded” adds a separate entry of the source.

Columns and labels:
[1] = system: NOS2-expressing LoVo cells; experiment: Tumor xenoplantation of NOS2-expressing LoVo cells in athymic nude mice; format: in vivo; conditions: wild-type p53 LoVo cells, slow-growing tumors
Text: (§1) FIG. 2a-d: Tumor probability of NOS2-expressing human carcinoma cells lines is dependent on the p53 status. 3×10^6 cells of NOS2-expressing Calu-6 and LoVo carcinoma cells, and the vector controls (BaglacZ), were inoculated into 10 athymic nude mice, respectively. NOS2-expressing LoVo cells, which have two wild-type p53 alleles, grow slower (A) and produce smaller tumors (C) than vector controls (BaglacZ). In contrast, NOS2-expressing Calu-6 cells, which lack expression of functional p53, grow faster (B) and produce larger tumors (D) than the vector controls.
(§2) A. Methods Tumor xenoplantation: Suspensions of 3×10^5 to 5×10^6 cells in a volume of 0.2 ml were injected at a single subcutaneous site into athymic nude mice previously irradiated with 350 rads. Either 10 or 20 animals were injected per experiment. A nodule was scored as a tumor when it measured 125 mm^3 or more by its largest two dimensions.
(§3) Statistical Analysis: The Kaplan-Meier survival analysis was used to calculate the statistical significance of tumor probabilities in different treatment groups. Other comparisons were carried out by the two-tailed Student's t-test. Relationships are considered statistically significant when p<0.05.

[2] = system: NOS2-expressing Calu-6 cells; experiment: Tumor xenoplantation of NOS2-expressing Calu-6 cells in athymic nude mice; format: in vivo; conditions: 1% AG; p53 null Calu-6 cells, subcutaneous tumors; p<0.05, two-tailed Student's t-test
Text: as §1, §2, §3

[3] = system: NOS2-expressing HT-29 colon carcinoma cells; experiment: Tumor xenoplantation of NOS2-expressing HT-29 colon carcinoma cells in athymic nude mice; format: in vivo; conditions: 1% AG in the drinking water; mutant p53 HT-29 cells; Kaplan-Meier analysis p=0.002
Method: 3×10^5 cells of NOS2 (Retro-HNOS) and β-galactosidase (BaglacZ) expressing HT-29 cells were inoculated into 40 athymic nude mice, respectively. Half of the animals in both groups received 1% AG in the drinking water. […] This effect is abolished (p=0.002) through treatment with 1% AG.
as §2, §3

[4] = system: VEGF secretion of NOS2-expressing Calu-6 cells; experiment: VEGF secretion into culture medium of NOS2-expressing Calu-6 cell clones (immunoprecipitation, western blot); format: cell-based, human; conditions: 2 mM L-NMA, 48 hr, 3×10^6 cells in 4 ml of medium
Method: FIG. 7a-b: VEGF protein concentrations are higher (4.3 and 7.1-fold) in the culture medium of NOS2-expressing Calu-6 cells clones than in the culture medium of vector controls (A) and correlate with increased VEGF mRNA expression (B). […] 3×10^6 cells were cultured in 4 ml of medium for 48 hr±2 mM L-NMA. VEGF was immunoprecipitated out of 1 ml of culture medium. The 4.4 kb VEGF mRNA was detected by northern blotting was a 522 bp ^32P-labeled cDNA (exon 1-7), and the 7.5 kb polycistronic mRNA encoding NOS2 with the full-length human NOS2 cDNA (Geller et al., Proc. Natl. Acad. Sci. U.S.A. 90:3491-3495 (1993); Tzeng et al., Proc. Nat'l Acad. Sci USA 92:11771-11775 (1995)).
NOS2 and VEGF western blot analysis: Cell lysates for western blotting were prepared by solubilization of cell pellets in RIPA butter. VEGF protein concentrations were determined as follows. Five μg of rabbit polyclonal anti-VEGF antibody (Santa Cruz Biotechnology) were added to either 1 mg of cellular protein extract or 1 ml of cell culture medium, incubated for 1 hr at 8-10° C., and then mixed with protein A-sepharose (10 mg) for 1 hr. […] After transfer to an Immunobilon-P membrane (Millipore), NOS2 and VEGF protein were detected with either a polyclonal anti-NOS2 antibody (Merck), 1:40,000 diluted, or a polyclonal anti-VEGF, 1:1000 diluted, as described (Ambs et al., Cancer Res. 58:334-341 (1998)).

SMILES | tumor growth of NOS2-expressing LoVo cells [1] | tumor growth of NOS2-expressing Calu-6 cells [2] | tumor probability / tumor growth of NOS2-expressing HT-29 cells [3] | VEGF secretion into the culture medium [4]
N=C(N)NN [aminoguanidine] | lack of an aminoguanidine effect | significantly reduced the tumor growth; also recorded: inhibited; also recorded: suppressed the tumor growth | significantly reduced the tumor growth; also recorded: reverses the growth stimulatory effect of NOS2 | –
CNC(=N)NCCC[C@H](N)C(=O)O [L-NMA, NG-monomethyl-L-arginine] | – | – | – | reduced the VEGF secretion; also recorded: decreases VEGF secretion
